The results in this text go back to PubChem BioAssay AID248 (DTP/NCI, 2004).

SMILES strings stand for the structures. Where “and” joins values, the source holds several entries; their conditions need not be identical. Equal values may be shown once. Inconclusive results and toxic doses are left out.

For this assay, the system named is L1210 leukemia ip in BDF1 mice, survival T/C. The assay is described as follows: NCI In Vivo Anticancer Drug Screen. Data for tumor model L1210 Leukemia (intraperitoneal) in B6D2F1 (BDF1) mice. The following applies: endpoint: mean survival time, higher = longer survival. Put shortly: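 Transplanted-tumor mice were given test agent; controls received vehicle only. Survival readings from the two groups were divided (treated over control).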

The mark [1] stands for this setting: dose: 100.0 mg/kg/injection, schedule: Q01DX009 (ip), vehicle: saline with Tween-80.
Setting [2] is: dose: 200.0 mg/kg/injection, schedule: Q01DX009 (ip), vehicle: saline with Tween-80.
[3] abbreviates: dose: 400.0 mg/kg/injection, schedule: Q01DX009 (ip), vehicle: saline with Tween-80.
Setting [4] is: dose: 100.0 mg/kg/injection, schedule: Q01DX001 (ip), vehicle: other.
[5] abbreviates: dose: 100.0 mg/kg/injection, schedule: Q04DX003 (ip), vehicle: other.
The mark [6] stands for this setting: dose: 200.0 mg/kg/injection, schedule: Q01DX001 (ip), vehicle: other.
Where [7] appears, read: dose: 200.0 mg/kg/injection, schedule: Q04DX003 (ip), vehicle: other.
The mark [8] stands for this setting: dose: 400.0 mg/kg/injection, schedule: Q01DX001 (ip), vehicle: other.
The mark [9] stands for this setting: dose: 50.0 mg/kg/injection, schedule: Q01DX009 (ip), vehicle: Klucel (hydroxypropylcellulose) (HPC).
The mark [10] stands for this setting: dose: 100.0 mg/kg/injection, schedule: Q01DX009 (ip), vehicle: Klucel (hydroxypropylcellulose) (HPC).
[11] abbreviates: dose: 200.0 mg/kg/injection, schedule: Q01DX009 (ip), vehicle: Klucel (hydroxypropylcellulose) (HPC).
[12] abbreviates: dose: 400.0 mg/kg/injection, schedule: Q04DX003 (ip), vehicle: other.
[13] abbreviates: dose: 50.0 mg/kg/injection, schedule: Q01DX009 (ip), vehicle: saline.
The mark [14] stands for this setting: dose: 100.0 mg/kg/injection, schedule: Q01DX009 (ip), vehicle: saline.
[15] abbreviates: dose: 100.0 mg/kg/injection, schedule: Q04DX003 (ip), vehicle: saline.
The mark [16] stands for this setting: dose: 200.0 mg/kg/injection, schedule: Q01DX009 (ip), vehicle: saline.
The mark [17] stands for this setting: dose: 200.0 mg/kg/injection, schedule: Q04DX003 (ip), vehicle: saline.
The mark [18] stands for this setting: dose: 50.0 mg/kg/injection, schedule: Q01DX009 (ip), vehicle: saline with Tween-80.

In the case of `CC(=O)O[C@H]1[C@H]2O[C@]23[C@@H]2CC[C@@H]4C[C@@H](O)CC[C@]4(C)[C@H]2CC[C@]3(C)[C@H]1c1ccc(=O)oc1`, the T/C is 110 % of control (dose: 3.75 mg/kg/injection, schedule: Q01DX009 (ip), vehicle: Klucel (hydroxypropylcellulose) (HPC)); 103 % of control (dose: 5.0 mg/kg/injection, schedule: Q01DX001 (ip), vehicle: other); 98 % of control (dose: 7.5 mg/kg/injection, schedule: Q01DX009 (ip), vehicle: Klucel (hydroxypropylcellulose) (HPC)); 103 % of control (dose: 10.0 mg/kg/injection, schedule: Q01DX001 (ip), vehicle: other); 98 % of control (dose: 15.0 mg/kg/injection, schedule: Q04DX003 (ip), vehicle: Klucel (hydroxypropylcellulose) (HPC)); 97 % of control (dose: 20.0 mg/kg/injection, schedule: Q01DX001 (ip), vehicle: other).
For `O=[Se]1OCc2ccccc2CO1`, the T/C by setting is: (dose: 9.5 mg/kg/injection, schedule: Q01DX001 (ip), vehicle: saline with Tween-80) 101 % of control; (dose: 19.0 mg/kg/injection, schedule: Q01DX001 (ip), vehicle: saline with Tween-80) 106 % of control; (dose: 38.0 mg/kg/injection, schedule: Q01DX001 (ip), vehicle: saline with Tween-80) 113 % of control.
Turning to `CCCCCCCCC1C(CCCCCCCC(=O)OC)SC(F)(F)C1(F)F` (stereo not given), the T/C under setting [1] was 95 % of control, the T/C under setting [2] was 93 % of control and the T/C under setting [3] was 102 % of control.
Regarding `CCN1CCN(CC)C1(Br)C1(Br)N(CC)CCN1CC`, the T/C reads like this: (dose: 75.0 mg/kg/injection, schedule: Q04DX002 (ip), vehicle: saline with Tween-80) 91 % of control; (dose: 150.0 mg/kg/injection, schedule: Q04DX002 (ip), vehicle: saline with Tween-80) 91 % of control; (dose: 300.0 mg/kg/injection, schedule: Q04DX002 (ip), vehicle: saline with Tween-80) 98 % of control.
`CCc1nnc2cc(C)ccn12`: the T/C is 98 % of control under setting [4]; 98 % of control under setting [5]; 107 % of control under setting [6]; 98 % of control under setting [7]; 107 % of control under setting [8].
With `[O-][n+]1c(C(Br)(Br)Br)ccc2ccccc21`, the T/C reads like this: under setting [9], 97 % of control; under setting [10], 95 % of control; under setting [11], 106 % of control.
On to `COc1ccc(COC(=O)Oc2ccc(C#N)cc2)cc1OC`, for which the T/C by setting is: (dose: 100.0 mg/kg/injection, schedule: Q04DX003 (ip), vehicle: saline with Tween-80) 106 % of control; (dose: 200.0 mg/kg/injection, schedule: Q04DX003 (ip), vehicle: saline with Tween-80) 96 % of control; (dose: 400.0 mg/kg/injection, schedule: Q04DX003 (ip), vehicle: saline with Tween-80) 93 % of control.
For the compound `CCOC(=O)CN=NNc1[nH]ncc1C(N)=O`, the T/C reads like this: under setting [4], 102 % of control; under setting [1], 115 % of control; under setting [5], 101 % of control; under setting [6], 104 % of control; under setting [2], 115 % of control; under setting [7], 113 % of control. Further, the T/C by setting is: under setting [8], 105 % of control; under setting [3], 116 % of control; under setting [12], 104 % of control.
Consider `CCCCCCC#CC(=O)OCCCCC`, for which the T/C is 96 % of control (dose: 100.0 mg/kg/injection, schedule: Q04DX002 (ip), vehicle: saline with Tween-80); 100 % of control (dose: 200.0 mg/kg/injection, schedule: Q04DX002 (ip), vehicle: saline with Tween-80); 96 % of control (dose: 400.0 mg/kg/injection, schedule: Q04DX002 (ip), vehicle: saline with Tween-80).
On to `C#CCN(C)/N=N/c1nc[nH]c1C(N)=O`, for which the T/C (dose: 50.0 mg/kg/injection, schedule: Q04DX003 (ip), vehicle: Klucel (hydroxypropylcellulose) (HPC)) was 104 % of control; the T/C under setting [10] is 157 % of control; the T/C (dose: 100.0 mg/kg/injection, schedule: Q04DX003 (ip), vehicle: Klucel (hydroxypropylcellulose) (HPC)) is 109 % of control and 116 % of control; the T/C under setting [11] was 118 % of control; the T/C (dose: 200.0 mg/kg/injection, schedule: Q04DX003 (ip), vehicle: Klucel (hydroxypropylcellulose) (HPC)) was 108 % of control; the T/C (dose: 400.0 mg/kg/injection, schedule: Q01DX009 (ip), vehicle: Klucel (hydroxypropylcellulose) (HPC)) is 88 % of control. Besides, the T/C (dose: 400.0 mg/kg/injection, schedule: Q04DX003 (ip), vehicle: Klucel (hydroxypropylcellulose) (HPC)) is 117 % of control.
As to `COc1cc(C(=O)OC(C)CN2CCOCC2)cc(OC)c1OC` (stereo not given), the T/C is 90 % of control (dose: 25.0 mg/kg/injection, schedule: Q01DX009 (ip), vehicle: saline); 95 % of control (dose: 25.0 mg/kg/injection, schedule: Q04DX003 (ip), vehicle: saline); 101 % of control under setting [13]; 109 % of control (dose: 50.0 mg/kg/injection, schedule: Q04DX003 (ip), vehicle: saline); 100 % of control under setting [14]; 101 % of control under setting [15]. For the same compound, the T/C is 90 % of control under setting [16]; 101 % of control under setting [17]; 111 % of control (dose: 400.0 mg/kg/injection, schedule: Q04DX003 (ip), vehicle: saline).
In the case of `CC(=O)OC1CCCC2=C(C)C(=O)CCC21C` (stereo not given), the T/C is 100 % of control under setting [18], 118 % of control under setting [1] and 94 % of control under setting [2].
In the case of `Cc1ccc(-n2c(O)c(N=Nc3ccccc3C)c(=O)n(-c3ccc(Cl)cc3)c2=S)cc1`, the T/C runs as follows: (dose: 50.0 mg/kg/injection, schedule: Q01DX001 (ip), vehicle: Klucel (hydroxypropylcellulose) (HPC)) 104 % of control; (dose: 100.0 mg/kg/injection, schedule: Q01DX001 (ip), vehicle: Klucel (hydroxypropylcellulose) (HPC)) 102 % of control; (dose: 200.0 mg/kg/injection, schedule: Q01DX001 (ip), vehicle: Klucel (hydroxypropylcellulose) (HPC)) 102 % of control.
With `C=C/C(C)=C/[C@H](C)C(=O)C[C@H](O)CC1CC(=O)NC(=O)C1`, the T/C is, setting by setting: (dose: 12.5 mg/kg/injection, schedule: Q01DX009 (ip), vehicle: saline with Tween-80) 109 % of control; (dose: 25.0 mg/kg/injection, schedule: Q01DX009 (ip), vehicle: Klucel (hydroxypropylcellulose) (HPC)) 113 % of control; (dose: 25.0 mg/kg/injection, schedule: Q01DX009 (ip), vehicle: saline with Tween-80) 120 % of control; under setting [9], 122 % of control; under setting [18], 119 % of control; under setting [10], 90 % of control. In addition, under setting [1], the T/C is 123 % of control.
On to `CNS(=O)(=O)c1ccc(N)cc1`, for which the T/C was 107 % of control under setting [4]; 102 % of control under setting [1]; 97 % of control under setting [5]; 104 % of control under setting [6]; 110 % of control under setting [2]; 106 % of control under setting [7]. Besides, the T/C runs as follows: under setting [8], 100 % of control; under setting [3], 98 % of control; under setting [12], 108 % of control.
With `CCCCN=CC(C)(C)NCCCC`, the T/C reads like this: under setting [13], 95 % of control; under setting [14], 90 % of control; under setting [15], 106 % of control; under setting [16], 88 % of control; under setting [17], 104 % of control.
`CCOC(=O)c1ccc(N=Cc2ccccc2O)cc1`: the T/C was 98 % of control under setting [9]; 88 % of control (dose: 75.0 mg/kg/injection, schedule: Q01DX001 (ip), vehicle: Klucel (hydroxypropylcellulose) (HPC)); 89 % of control under setting [10]; 105 % of control (dose: 150.0 mg/kg/injection, schedule: Q01DX001 (ip), vehicle: Klucel (hydroxypropylcellulose) (HPC)); 106 % of control under setting [11]; 88 % of control (dose: 300.0 mg/kg/injection, schedule: Q01DX001 (ip), vehicle: Klucel (hydroxypropylcellulose) (HPC)).
As for `Cc1cc(Cc2cc(C)c(C)c(C)c2C)c(C)c(C)c1C`, the T/C reads like this: under setting [4], 96 % of control; under setting [6], 95 % of control; under setting [8], 90 % of control.
